Here are results for 8 compounds from patent US20240009211A1, “PHARMACEUTICAL COMPOSITION FOR TREATMENT OF LUNG CANCER COMPRISING CANNABIDIOL AND ANTICANCER AGENT AS ACTIVE INGREDIENTS, AND USE THEREOF” (NEOCANNBIO CO., LTD., priority 2022, published 2024).

The structures appear in SMILES notation. Some results are limits rather than exact numbers.

The subject of assay [1] is A549 cells. Nature of the assay: Anti-cancer agents with or without CBD, WST-8 cell survival. The assay is classed as cell-based. The conditions noted are these: A549, 48 h. The procedure:
(§1) After completion of culture, 1/10 of WST-8 solution (Quanti-Max™, BIOMAX, Korea) was added to the medium, and after additional culture at 37° C. for 1 hour, the cell survival rate was determined by measuring absorbance at 450 nm, and expressed as a percentage of the control without any treatment. The experiment was conducted independently and repeated three times.

The test system of assay [2] is A549 cells. Nature of the assay: Cancer cell toxicity of CBD, WST-8 cell survival. Type of assay: cell-based. The note with it: Homo sapiens, A549, 48 h. As for the experimental part:
as §1, with “Specifically, A549 cells, a lung cancer cell line, were seeded in 96-well plates at a concentration of 1×10^4 cells/well, cultured in a 37° C., 10% CO2 incubator for 24 hours, then treated with CBD in a concentration-dependent manner and cultured under the same conditions for 48 hours. After” for “After”

Assay [3] relates to A549 cells. Nature of the assay: Western blotting of apoptosis- and autophagy-related proteins after combined treatment. The note with it: A549, 24 h, etoposide combined with CBD (15 μM). Type of assay: cell-based. As for the experimental part: After completion of culture, the cells were harvested and the proteins were quantified using the bradford assay (Bio-Rad, japan), and the proteins (30 ug/well) were separated by electrophoresis on NuPAGE 4-12% Bis-Tris gels (Invitrogen) and transferred to polyvinylidene difluoride (PVDF). Next, the PVDF membrane was reacted with a primary antibody (Monoclonal antibody, Cell signaling technology, USA) specific for PARP[Poly (ADP-ribose) polymerase], cleaved caspase9, cleaved caspase8, LC3B or GAPDH for 1 hour at room temperature, followed by reacting with an anti-rabbit secondary antibody (Cell signaling technology) for 1 hour. The antibodies bound to PVDF were visualized using ECL Advance Western Blotting Detection Reagents (GE Healthcare, UK) and LAS 4000 imaging system (Fujifilm, Japan).

Assay [4] deals with A549 cells. The assay can be described thus: cells. The conditions noted are these: Homo sapiens, A549, 48 h.
Assay [5] has as its system A549 cells. The assay can be described thus: Apoptosis by Fluorescence Activated Cell Sorting (FACS). The assay is classed as cell-based. The note with it: A549, combined treatment of etoposide and CBD compared to individual treatment. From the text: In addition, the apoptosis results of the combination treatment were re-validated using a Fluorescence Activated Cell Sorting (FACS) system.

[6] abbreviates: Homo sapiens, read-out: IC50 (μM), with CBD (15 μM).
The mark [7] stands for this setting: Homo sapiens, read-out: IC50 (μM), without CBD.
[8] abbreviates: etoposide concentration-dependent.

As for `COc1cc2nccc(Oc3ccc(NC(=O)C4(C(=O)Nc5ccc(F)cc5)CC4)cc3)c2cc1OC` [Cabozantinib (XL184), Cabozantinib], the results for the concentration for half-maximal inhibition (IC50) with A549 cells [1] (setting [6]) and in the assay with A549 cells [1] (setting [7]) were 4.14 µM and 8.29 µM, respectively.

In the case of `CNC(=O)c1cc(Oc2ccc(NC(=O)Nc3ccc(Cl)c(C(F)(F)F)c3)cc2)ccn1` [Sorafenib], the figures for the IC50 in the assay on A549 cells [1] (setting [6]) and with A549 cells [1] (setting [7]) were 4.26 µM and 8.97 µM, respectively.

`CCC1=C[C@@H]2CN(C1)Cc1c([nH]c3ccccc13)[C@@](C(=O)OC)(c1cc3c(cc1OC)N(C)[C@H]1[C@@](O)(C(=O)OC)[C@H](OC(C)=O)[C@]4(CC)C=CCN5CC[C@]31[C@@H]54)C2` [Vinorelbine]: the IC50 is 6.38 µM in the assay on A549 cells [1] (setting [6]) and 12.4 µM with A549 cells [1] (setting [7]).

In turn, `C=C(C)[C@@H]1CCC(C)=C[C@H]1c1c(O)cc(CCCCC)cc1O` [CBD, 2-[(1R,6R)-3-methyl-6-prop-1-en-2-ylcyclohex-2-en-1-yl]-5-pentylbenzene-1,3-diol] returned a half-inhibitory concentration (IC50) in the assay on A549 cells [2] of 18.6 µM.

For the compound `COc1cc2nccc(Oc3ccc(NC(=O)NC4CC4)c(Cl)c3)c2cc1C(N)=O` [Lenvatinib], the IC50 in the assay on A549 cells [1] (setting [6]) amounted to 16.9 µM; with A549 cells [1] (setting [7]), 19.9 µM.

As to `N.N.O=C([O-])C1(C(=O)[O-])CCC1.[Pt+2]` [Carboplatin], the IC50 in the assay on A549 cells [1] (read-out: IC50 (μM), 48 h, with CBD, with CBD (15 μM)) is above 100 µM.

`CNC(=O)c1cc(Oc2ccc(NC(=O)Nc3ccc(Cl)c(C(F)(F)F)c3)c(F)c2)ccn1` [Regorafenib]: the IC50 with A549 cells [1] (setting [6]) is 4.11 µM; with A549 cells [1] (setting [7]), 5.27 µM.

For the compound `COc1cc([C@@H]2c3cc4c(cc3[C@@H](O[C@@H]3O[C@@H]5CO[C@@H](C)O[C@H]5[C@H](O)[C@H]3O)[C@H]3COC(=O)[C@H]23)OCO4)cc(OC)c1O` [Etoposide (VP-16), etoposide], the IC50 in the assay with A549 cells [1] (setting [6]) turned out to be 51.4 µM. In the assay on A549 cells [3], the “expression of Bcl-2 protein” value is reported as “decreased” and the “expression of autophagy-related protein LC3-II” value was “increased”. Further, in the assay on A549 cells [3] (setting [8]), the “expression of Bax protein” value is “increased”, the “expression of cleaved PARP protein” value was “increased”, the “expression of cleaved caspase8 protein” value was “increased” and the “expression of cleaved caspase9 protein” value was “increased”. Moreover, the IC50 in the assay with A549 cells [4] (read-out: cytotoxicity (IC50) of etoposide alone) amounted to 106 µM. Besides, the IC50 in the assay on A549 cells [4] (read-out: cytotoxicity (IC50) of etoposide upon combined treatment with CBD) is 51.4 µM. The “number of early apoptotic cells” value in the assay with A549 cells [5] is recorded as “significantly increased”.
